The subject of one experiment is HCV genotype 1b replicon. Kind of experiment: HCV replicon assay, genotype 1b replicon EC50. Particulars: Hepatitis C virus, genotype 1b replicon; read-out: EC50 [gt-1b]. Format: cell-based, Hepatitis C virus. Summed up:
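Replicon cells (Neo^r, some luciferase:Neo^r fusion); G418 removed at plating; compound dilution series, 24-48 h. Readout: RNA by 32P-probe hybridization/protection or TaqMan, normalized to cyclophilin A RNA, or luciferase. EC50 vs DMSO control, 4-parameter fit.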

The target in experiment [1] is HCV NS3/4A protease genotype 1b (Hepatitis C virus genotype 1b, UniProt P26663). The experiment can be described thus: HCV NS3/4A protease time-resolved fluorescence (TRF) assay, Ki against genotype 1b. The format is biochemical. The note with it: IC50 [gt-1b] (nM), NS3/4A genotype 1b, enzyme 0.2 nM. In short, it runs like this: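 Ki values come from IC50 fits corrected for substrate concentration and KM. The time-resolved fluorescence protease reaction used 25 nM peptide substrate, 2.5 h, room temperature, pH 7.5 HEPES buffer, after 30 min enzyme–inhibitor preincubation.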
HCV NS3/4A protease genotype 1b, sequence (P26663 1027-1657): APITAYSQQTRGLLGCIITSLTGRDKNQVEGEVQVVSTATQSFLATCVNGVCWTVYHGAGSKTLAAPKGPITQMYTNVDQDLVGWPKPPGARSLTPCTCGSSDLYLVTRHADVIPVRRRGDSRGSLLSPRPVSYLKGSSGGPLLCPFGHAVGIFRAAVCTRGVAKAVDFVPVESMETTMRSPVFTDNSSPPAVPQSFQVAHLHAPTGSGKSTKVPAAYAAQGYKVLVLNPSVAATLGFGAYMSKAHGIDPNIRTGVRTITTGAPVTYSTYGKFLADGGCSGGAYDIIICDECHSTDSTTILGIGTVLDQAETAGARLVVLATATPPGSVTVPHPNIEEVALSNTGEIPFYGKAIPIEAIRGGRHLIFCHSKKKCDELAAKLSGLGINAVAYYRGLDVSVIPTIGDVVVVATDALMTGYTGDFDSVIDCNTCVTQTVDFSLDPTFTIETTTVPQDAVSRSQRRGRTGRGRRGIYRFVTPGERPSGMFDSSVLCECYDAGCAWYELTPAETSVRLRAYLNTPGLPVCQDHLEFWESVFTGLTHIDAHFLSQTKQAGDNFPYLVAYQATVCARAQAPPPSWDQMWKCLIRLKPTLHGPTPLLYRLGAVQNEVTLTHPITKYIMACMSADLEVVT
HCV NS3/4A protease genotype 1b, sequence (P26663 1658-1711): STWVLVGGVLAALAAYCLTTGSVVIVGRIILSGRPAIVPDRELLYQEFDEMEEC

Take `Cc1nc2ccccc2c2c1O[C@]1(CC2)C[C@H]2C(=O)N[C@]3(C(=O)NS(=O)(=O)C4(C)CC4)C[C@H]3/C=C\CCCCC[C@H](N(CCC3CCCC3)CCC3CCCC3)C(=O)N2C1` [Example 162, (2R,6S,12Z,13aS,14aR,16aS)-6-[bis(2-cyclopentylethyl)amino]-5′-methyl-N-[(1-methylcyclopropyl)sulfonyl]-5,16-dioxo-1,1′,2′,6,7,8,9,10,11,13a,14,15,16,16a-tetradecahydrospiro[cyclopropa[e]pyrrolo[1,2-a][1,4]diazacyclopentadecine-2,3′-pyrano[2,3-c]quinoline]-14a(5H)-carboxamide]: the EC50 in the experiment on HCV genotype 1b replicon stood at 72 nM. The same compound registered a half-maximal inhibitory concentration (IC50) in experiment [1] of 6.38 nM.
For `Cc1nc2ccccc2c2c1O[C@]1(CC2)C[C@H]2C(=O)N[C@]3(C(=O)NS(=O)(=O)C4(C)CC4)C[C@H]3/C=C\CCCCC[C@H](N(CCC(C)(C)C)CCC(C)(C)C)C(=O)N2C1` [Example 163, (2R,6S,12Z,13aS,14aR,16aS)-6-[bis(3,3-dimethylbutyl)amino]-5′-methyl-N-[(1-methylcyclopropyl)sulfonyl]-5,16-dioxo-1,1′,2′,6,7,8,9,10,11,13a,14,15,16,16a-tetradecahydrospiro[cyclopropa[e]pyrrolo[1,2-a][1,4]diazacyclopentadecine-2,3′-pyrano[2,3-c]quinoline]-14a(5H)-carboxamide] the same measures were greater than 100 nM and 6.21 nM.
In the same order, the values of `Cc1nc2ccccc2c2c1O[C@]1(CC2)C[C@H]2C(=O)N[C@]3(C(=O)NS(=O)(=O)C4(C)CC4)C[C@H]3/C=C\CCCCC[C@H](NCCC(C)(C)C)C(=O)N2C1` [Example 164, (2R,6S,12Z,13aS,14aR,16aS)-6-[(3,3-dimethylbutyl)amino]-5′-methyl-N-[(1-methylcyclopropyl)sulfonyl]-5,16-dioxo-1,1′,2′,6,7,8,9,10,11,13a,14,15,16,16a-tetradecahydrospiro[cyclopropa[e]pyrrolo[1,2-a][1,4]diazacyclopentadecine-2,3′-pyrano[2,3-c]quinoline]-14a(5H)-carboxamide] are 2.71 nM and 0.132 nM.
In the same order, the values of `COc1ccc2nc(C(C)C)c3c(c2c1)CC[C@]1(C[C@H]2C(=O)N[C@]4(C(=O)NS(=O)(=O)C5(C)CC5)C[C@H]4/C=C\CCCCC[C@H](NC(=O)OC4(C)CC4)C(=O)N2C1)O3` [Example 165, 1-methylcyclopropyl [(2R,6S,12Z,13aS,14aR,16aS)-9′-methoxy-14a-{[(1-methylcyclopropyl)sulfonyl]carbamoyl}-5,16-dioxo-5′-(propan-2-yl)-1,1′,2′,5,6,7,8,9,10,11,13a,14,14a,15,16,16a-hexadecahydrospiro[cyclopropa[e]pyrrolo[1,2-a][1,4]diazacyclopentadecine-2,3′-pyrano[2,3-c]quinolin]-6-yl]carbamate] are 1.39 nM and 0.005 nM.
Turning to `CC1(S(=O)(=O)NC(=O)[C@@]23C[C@H]2/C=C\CCCCC[C@H](NC(=O)OC2CCCCC2)C(=O)N2C[C@@]4(CCc5c(c(C6CC6)nc6c(F)cccc56)O4)C[C@H]2C(=O)N3)CC1` [Example 166, cyclohexyl [(2R,6S,12Z,13aS,14aR,16aS)-5′-cyclopropyl-7′-fluoro-14a-{[(1-methylcyclopropyl)sulfonyl]carbamoyl}-5,16-dioxo-1,1′,2′,5,6,7,8,9,10,11,13a,14,14a,15,16,16a-hexadecahydrospiro[cyclopropa[e]pyrrolo[1,2-a][1,4]diazacyclopentadecine-2,3′-pyrano[2,3-c]quinolin]-6-yl]carbamate], in the experiment with HCV genotype 1b replicon, the EC50 amounted to 2.4 nM. The compound further yielded an IC50 in experiment [1] of 0.019 nM.
As for `CC(C)C1(OC(=O)N[C@H]2CCCCC/C=C\[C@@H]3C[C@@]3(C(=O)NS(=O)(=O)C3(C)CC3)NC(=O)[C@@H]3C[C@]4(CCc5c(c(C6CC6)nc6c(F)cccc56)O4)CN3C2=O)CC1` [Example 167, 1-(propan-2-yl)cyclopropyl [(2R,6S,12Z,13aS,14aR,16aS)-5′-cyclopropyl-7′-fluoro-14a-{[(1-methylcyclopropyl)sulfonyl]carbamoyl}-5,16-dioxo-1,1′,2′,5,6,7,8,9,10,11,13a,14,14a,15,16,16a-hexadecahydrospiro[cyclopropa[e]pyrrolo[1,2-a][1,4]diazacyclopentadecine-2,3′-pyrano[2,3-c]quinolin]-6-yl]carbamate], in the experiment with HCV genotype 1b replicon, the concentration for a half-maximal effect (EC50) was determined as 1.88 nM. The compound also came in with a half-inhibitory concentration (IC50) in experiment [1] of 0.02 nM.
For `CC1(OC(=O)N[C@H]2CCCCC/C=C\[C@@H]3C[C@@]3(C(=O)NS(=O)(=O)C3(C)CC3)NC(=O)[C@@H]3C[C@]4(CCc5c(c(C6CC6)nc6c(F)cccc56)O4)CN3C2=O)CC1` [Example 168, 1-methylcyclopropyl [(2R,6S,12Z,13aS,14aR,16aS)-5′-cyclopropyl-7′-fluoro-14a-{[(1-methylcyclopropyl)sulfonyl]carbamoyl}-5,16-dioxo-1,1′,2′,5,6,7,8,9,10,11,13a,14,14a,15,16,16a-hexadecahydrospiro[cyclopropa[e]pyrrolo[1,2-a][1,4]diazacyclopentadecine-2,3′-pyrano[2,3-c]quinolin]-6-yl]carbamate] the same measures were 3.73 nM and 0.013 nM.
In the same order, the values of `COc1ccc2nc(C(C)C)c3c(c2c1)CC[C@]1(C[C@H]2C(=O)N[C@]4(C(=O)NS(=O)(=O)C5(C)CC5)C[C@H]4/C=C\CCCCC[C@H](NC(=O)OC4(C)CCC4)C(=O)N2C1)O3` [Example 169, 1-methylcyclobutyl [(2R,6S,12Z,13aS,14aR,16aS)-9′-methoxy-14a-{[(1-methylcyclopropyl)sulfonyl]carbamoyl}-5,16-dioxo-5′-(propan-2-yl)-1,1′,2′,5,6,7,8,9,10,11,13a,14,14a,15,16,16a-hexadecahydrospiro[cyclopropa[e]pyrrolo[1,2-a][1,4]diazacyclopentadecine-2,3′-pyrano[2,3-c]quinolin]-6-yl]carbamate] are 1.53 nM and 0.019 nM.
For the compound `COc1ccc2nc(C3CCC3)c3c(c2c1)CC[C@]1(C[C@H]2C(=O)N[C@]4(C(=O)NS(=O)(=O)C5(C)CC5)C[C@H]4/C=C\CCCCC[C@H](NC(=O)OC4CCCC4)C(=O)N2C1)O3` [Example 170, cyclopentyl [(2R,6S,12Z,13aS,14aR,16aS)-5′-cyclobutyl-9′-methoxy-14a-{[(1-methylcyclopropyl)sulfonyl]carbamoyl}-5,16-dioxo-1,1′,2′,5,6,7,8,9,10,11,13a,14,14a,15,16,16a-hexadecahydrospiro[cyclopropa[e]pyrrolo[1,2-a][1,4]diazacyclopentadecine-2,3′-pyrano[2,3-c]quinolin]-6-yl]carbamate], the concentration giving a half-maximal response (EC50) with HCV genotype 1b replicon came to 2.65 nM. In experiment [1], the IC50 is 0.013 nM.
For `COc1ccc2nc(C3CCC3)c3c(c2c1)CC[C@]1(C[C@H]2C(=O)N[C@]4(C(=O)NS(=O)(=O)C5(C)CC5)C[C@H]4/C=C\CCCCC[C@H](NC(=O)OCC(C)C)C(=O)N2C1)O3` [Example 171, 2-methylpropyl [(2R,6S,12Z,13aS,14aR,16aS)-5′-cyclobutyl-9′-methoxy-14a-{[(1-methylcyclopropyl)sulfonyl]carbamoyl}-5,16-dioxo-1,1′,2′,5,6,7,8,9,10,11,13a,14,14a,15,16,16a-hexadecahydrospiro[cyclopropa[e]pyrrolo[1,2-a][1,4]diazacyclopentadecine-2,3′-pyrano[2,3-c]quinolin]-6-yl]carbamate] the same measures were 1.62 nM and 0.013 nM.
As to `Cc1nc2ccccc2c2c1O[C@]1(CC2)C[C@H]2C(=O)N[C@]3(C(=O)NS(=O)(=O)C4(C)CC4)C[C@H]3/C=C\CCCCC[C@H](NCCc3ccccc3)C(=O)N2C1` [Example 172, (2R,6S,12Z,13aS,14aR,16aS)-5′-methyl-N-[(1-methylcyclopropyl)sulfonyl]-5,16-dioxo-6-[(2-phenylethyl)amino]-1,1′,2′,6,7,8,9,10,11,13a,14,15,16,16a-tetradecahydrospiro[cyclopropa[e]pyrrolo[1,2-a][1,4]diazacyclopentadecine-2,3′-pyrano[2,3-c]quinoline]-14a(5H)-carboxamide], in the experiment on HCV genotype 1b replicon, the EC50 turned out to be 7.99 nM. Moreover, in experiment [1], half-maximal inhibition (IC50) was put at 0.24 nM.
For the compound `Cc1nc2ccccc2c2c1O[C@]1(CC2)C[C@H]2C(=O)N[C@]3(C(=O)NS(=O)(=O)C4(C)CC4)C[C@H]3/C=C\CCCCC[C@H](N(CCc3ccccc3)CCc3ccccc3)C(=O)N2C1` [Example 173, (2R,6S,12Z,13aS,14aR,16aS)-6-[bis(2-phenylethyl)amino]-5′-methyl-N-[(1-methylcyclopropyl)sulfonyl]-5,16-dioxo-1,1′,2′,6,7,8,9,10,11,13a,14,15,16,16a-tetradecahydrospiro[cyclopropa[e]pyrrolo[1,2-a][1,4]diazacyclopentadecine-2,3′-pyrano[2,3-c]quinoline]-14a(5H)-carboxamide], the concentration for a half-maximal effect (EC50) in the experiment on HCV genotype 1b replicon is greater than 100 nM. For the same compound, in experiment [1], it took 6.27 nM to reach half-maximal inhibition (IC50).
In the same order, the values of `Cc1nc2ccc(OC(F)(F)F)cc2c2c1O[C@]1(CC2)C[C@H]2C(=O)N[C@]3(C(=O)NS(=O)(=O)C4(C)CC4)C[C@H]3/C=C\CCCCC[C@H](NC(=O)OC3(C)CCC3)C(=O)N2C1` [Example 174, 1-methylcyclobutyl [(2R,6S,12Z,13aS,14aR,16aS)-5′-methyl-14a-{[(1-methylcyclopropyl)sulfonyl]carbamoyl}-5,16-dioxo-9′-(trifluoromethoxy)-1,1′,2′,5,6,7,8,9,10,11,13a,14,14a,15,16,16a-hexadecahydrospiro[cyclopropa[e]pyrrolo[1,2-a][1,4]diazacyclopentadecine-2,3′-pyrano[2,3-c]quinolin]-6-yl]carbamate] are 2.33 nM and 0.007 nM.

The values are drawn from patent US8987195B2 (priority 2012, dated 2015).
